Experimental data from PMC4966929, “Two Distinct Cardiolipin Synthases Operate in Agrobacterium tumefaciens” (PLoS ONE, 2016).

Molecular target: T1, Cls2 (Agrobacterium fabrum, UniProt A9CHR9)
T1 construct: gene cls; native full-length enzyme in A. tumefaciens crude extract (wild type and delta-cls1 lysates, assigned by loss in delta-cls2); about 54 kDa, not purified, no tag
T1 sequence (A9CHR9 1-486): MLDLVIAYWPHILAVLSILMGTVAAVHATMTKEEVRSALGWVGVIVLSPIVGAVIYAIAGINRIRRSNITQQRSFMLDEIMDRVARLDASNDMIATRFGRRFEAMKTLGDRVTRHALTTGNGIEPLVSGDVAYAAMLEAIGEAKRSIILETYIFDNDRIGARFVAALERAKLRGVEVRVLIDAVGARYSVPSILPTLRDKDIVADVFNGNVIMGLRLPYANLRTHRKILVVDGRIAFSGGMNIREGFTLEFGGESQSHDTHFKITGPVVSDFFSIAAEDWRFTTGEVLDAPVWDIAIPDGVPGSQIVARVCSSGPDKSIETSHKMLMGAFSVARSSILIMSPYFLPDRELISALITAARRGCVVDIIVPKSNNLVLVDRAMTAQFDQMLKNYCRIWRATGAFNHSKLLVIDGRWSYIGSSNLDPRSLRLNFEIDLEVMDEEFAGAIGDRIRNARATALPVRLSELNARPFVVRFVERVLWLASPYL
Test: CL formation in crude extract of wild type and cls deletion strains, lipid extraction, 1D-TLC
Assay type: biochemical
Conditions: 0.4 mM lipid in micellar form, 0.02% Triton X-100, 50 mM Tris/HCl, 50 mM NaCl, pH 8, 30 C, 12 h; 300 ug total protein

For CCCCCCCC/C=C\CCCCCCCC(=O)OC[C@H](COP(=O)(O)OCC(O)CO)OC(=O)CCCCCCC/C=C\CCCCCCCC (mixture of isomers) [PG, 1,2-dioleoyl-sn-glycero-3-phospho-rac-(1-glycerol)], the “CL formation in crude extract of wild type and cls deletion strains, lipid extra” value was “suggesting that PG-dependent CL accumulation is mediated by Cls2”.
